The values below come from US20240156825A1, “USE OF SELECTIVE VEGFR2 AND FGFR1 INHIBITORS” (Fountain Therapeutics Inc., priority 2022, published 2024).

Where two headings read alike, the source gives them in different places.

For assay [1], the target named is T1, VEGFR2 (Homo sapiens, UniProt P35968). The note with it: reported IC50 to VEGFR2, read-out: VEGFR2 IC50_μM, cited from earlier work.
In a further assay the test system is any gene target. As to conditions: cited from earlier work.
The target in assay [2] is T1, VEGFR2. As to conditions: relative IC50: reported IC50 toward VEGFR2 divided by next lowest reported IC50 to any gene target.
Setting [3] is: Table 3, selective inhibitors of VEGFR2.
Where [4] appears, read: next lowest IC50 value to any gene target, Table 3, read-out: Min IC50_μM.
[5] abbreviates: next lowest IC50 value to any gene target, read-out: Min IC50_μM.

T1 sequence (P35968 20-1356, species assumed): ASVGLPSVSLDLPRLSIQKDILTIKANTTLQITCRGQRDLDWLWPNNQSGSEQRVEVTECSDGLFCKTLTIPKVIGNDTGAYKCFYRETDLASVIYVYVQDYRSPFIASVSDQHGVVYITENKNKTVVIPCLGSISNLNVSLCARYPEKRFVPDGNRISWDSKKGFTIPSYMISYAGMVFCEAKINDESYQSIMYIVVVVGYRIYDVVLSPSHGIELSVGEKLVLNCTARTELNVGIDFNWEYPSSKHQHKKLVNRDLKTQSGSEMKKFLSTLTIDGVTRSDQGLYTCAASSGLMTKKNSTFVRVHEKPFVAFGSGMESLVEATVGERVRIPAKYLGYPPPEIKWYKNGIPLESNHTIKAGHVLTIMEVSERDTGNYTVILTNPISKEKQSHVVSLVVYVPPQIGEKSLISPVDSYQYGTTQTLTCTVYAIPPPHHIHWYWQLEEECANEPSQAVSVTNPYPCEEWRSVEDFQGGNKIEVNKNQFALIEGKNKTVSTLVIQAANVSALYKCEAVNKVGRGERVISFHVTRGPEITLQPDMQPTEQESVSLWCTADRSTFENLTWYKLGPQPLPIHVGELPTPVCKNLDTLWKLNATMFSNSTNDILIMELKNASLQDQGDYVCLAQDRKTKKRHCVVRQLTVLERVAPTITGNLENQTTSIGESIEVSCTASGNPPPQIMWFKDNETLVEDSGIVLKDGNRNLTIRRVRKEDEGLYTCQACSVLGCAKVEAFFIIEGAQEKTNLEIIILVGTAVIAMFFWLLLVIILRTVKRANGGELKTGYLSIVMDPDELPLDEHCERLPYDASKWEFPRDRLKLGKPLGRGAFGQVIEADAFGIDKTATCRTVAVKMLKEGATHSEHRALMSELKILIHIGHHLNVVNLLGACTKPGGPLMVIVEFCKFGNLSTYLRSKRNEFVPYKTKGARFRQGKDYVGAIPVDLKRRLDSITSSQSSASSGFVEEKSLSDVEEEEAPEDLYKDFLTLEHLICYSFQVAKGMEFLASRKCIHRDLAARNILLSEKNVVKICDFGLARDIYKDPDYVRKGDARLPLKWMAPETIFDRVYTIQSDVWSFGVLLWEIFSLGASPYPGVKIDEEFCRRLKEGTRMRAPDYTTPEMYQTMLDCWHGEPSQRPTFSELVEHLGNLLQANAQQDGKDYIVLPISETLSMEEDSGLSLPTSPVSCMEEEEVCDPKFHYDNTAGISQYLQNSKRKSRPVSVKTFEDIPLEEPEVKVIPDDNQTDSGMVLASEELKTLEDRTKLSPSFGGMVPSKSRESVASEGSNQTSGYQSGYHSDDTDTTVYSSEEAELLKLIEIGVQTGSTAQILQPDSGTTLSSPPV

Regarding `CONC(=O)c1cc(Nc2ncnn3cc(-c4ncc(C)o4)c(C(C)C)c23)c(F)cc1F` [compound 10388612, 2,4-Difluoro-5-[5-isopropyl-6-(5-methyl-oxazol-2-yl)-pyrrolo[2,1-f][1,2,4]triazin-4-ylamino]-N-methoxy-benzamide, reference compound], the IC50 was 1.1 nM at VEGFR2 [1] (setting [3]); 1 nM in the assay on any gene target (lowest reported IC50 to any gene target, read-out: min IC50); 1.1 nM in the assay on any gene target (setting [4]). Also, the “VEGFR2, rIC50” value at VEGFR2 [2] was found to be 1.0.
As to `CONC(=O)c1cc(Nc2ncnn3cc(NC(=O)OCC4CCCO4)c(C(C)C)c23)c(F)cc1F` (stereo not shown) [compound 11477626, [4-(2,4-Difluoro-5-methoxycarbamoyl-phenylamino)-5-isopropyl-pyrrolo[2,1-f][1,2,4]triazin-6-yl]-carbamic acid tetrahydro-furan-2-ylmethyl ester], the “VEGFR2, rIC50” value at VEGFR2 [2] worked out at 1.0.
`Nc1c(C(=O)c2cc3ccccc3[nH]2)cnn1-c1ccc2nc[nH]c2c1` [compound 68005732, [5-Amino-1-(1H-benzimidazol-6-yl)-1H-pyrazol-4-yl]-1H-indol-2-ylMethanone]: the “VEGFR2, rIC50” value at VEGFR2 [2] turned out to be 10.3.
For `COc1cc2c(Nc3ccc(Cl)cc3F)ncnc2cc1OCCCN1CCCC1` [compound 73352657], the IC50 on VEGFR2 [1] (setting [3]) and in the assay with any gene target (setting [4]) was 8 nM throughout.
In the case of `COc1cc2c(Nc3cc(O)c(Cl)cc3F)ncnc2cc1OCC1CCN(C)CC1` [compound 73357210], the IC50 on VEGFR2 [1] (setting [3]) and with any gene target (setting [4]) was 3 nM each time.
In the case of `CN=C(NC#N)N1CCOC(COc2cc3ncnc(Nc4ccc(Cl)c(C)c4)c3cc2OC)C1` (stereo not shown) [compound 89125605], the IC50 at VEGFR2 [1] (setting [3]) and with any gene target (setting [4]) was 50 nM throughout.
Take `CNc1cc2c(cn1)cc(-c1ccc(F)c(NC(=O)Nc3cc(C(C)(C)C)no3)c1)c(=O)n2[C@H]1CCOC1` [compound 122177477]: the IC50 on VEGFR2 [1] is 0.46 nM; with any gene target (setting [5]) it was 1 nM.
As to `O=C(Nc1ccc(Oc2ncnc3sc4c(c23)CCCC4)cc1)Nc1cccc(Br)c1` [compound 122193773], the IC50 at VEGFR2 [1] is 11 nM; in the assay on any gene target (setting [5]), 17 nM.
`COc1cc2ncnc(Nc3cccc(Cl)c3)c2cc1OCCC(=O)NO` [compound 122195525]: the values for the IC50 at VEGFR2 [1] and in the assay on any gene target (setting [5]) were 476 nM and 645 nM, respectively.
Consider `COc1cc2ncnc(Nc3ccc(F)cc3)c2cc1OCCCC(=O)NO` [compound 127026070], for which the IC50 at VEGFR2 [1] was 376 nM; in the assay on any gene target (setting [5]) it was 1340 nM.
For `COc1cc2ncnc(Nc3ccccc3Cl)c2cc1OCCCC(=O)NO` [compound 127027019], the IC50 on VEGFR2 [1] is 857 nM; with any gene target (setting [5]), 1260 nM.
On to `COc1cc2ncnc(Nc3ccc(Cl)cc3)c2cc1OCCCC(=O)NO` [compound 127027096], for which the IC50 at VEGFR2 [1] is 182 nM; in the assay on any gene target (setting [5]), 698 nM.
`COc1cc2ncnc(Nc3ccc(Br)cc3)c2cc1OCCCC(=O)NO` [compound 127027714]: the IC50 was 98 nM at VEGFR2 [1] and 545 nM in the assay with any gene target (setting [5]).
Turning to `COc1cc2ncnc(Nc3ccc(Br)cc3)c2cc1OCCCCC(=O)NO` [compound 127028028], the figures for the IC50 at VEGFR2 [1] and in the assay with any gene target (setting [5]) were 59 nM and 68 nM, respectively.
Take `CS(=O)(=O)Cc1cccc(Nc2nccc(Oc3ccc4c(C(=O)Nc5cccnc5)cccc4c3)n2)c1` [compound 127037812]: the IC50 was 0.5 nM on VEGFR2 [1] and 4.9 nM in the assay with any gene target (setting [5]).
As to `COc1cc2c(Nc3ccc(Cl)c(Cl)c3)ncnc2cc1O[C@@H]1C[C@H]2OC[C@H](OC)[C@H]2O1` [compound 134140126], the IC50 at VEGFR2 [1] (setting [3]) and in the assay on any gene target (setting [4]) was 50 nM throughout.
`COc1cc2c(Nc3cccc(Cl)c3F)ncnc2cc1OCC1CN(C(N)=NC#N)CCCO1` (stereo not shown) [compound 134142438]: the IC50 at VEGFR2 [1] (setting [3]) and in the assay on any gene target (setting [4]) was 50 nM in each case.
As for `COc1cc2c(Nc3ccc(Br)c(Cl)c3Cl)ncnc2cc1OC[C@H]1CN2CCCC[C@H]2CO1` [compound 134150926], the IC50 on VEGFR2 [1] (setting [3]) and with any gene target (setting [4]) was 50 nM each time.
Regarding `COc1cc2c(Nc3cccc(Cl)c3Cl)ncnc2cc1OCC1CN(C(C)=N)CCCO1` (stereo not shown) [compound 134151034], the IC50 on VEGFR2 [1] (setting [3]) and with any gene target (setting [4]) was 50 nM in each case.
For the compound `COc1cc2c(Nc3cc(Cl)c(Br)cc3F)ncnc2cc1OCC1COCCN1C` (stereo not shown) [compound 134154844], the IC50 at VEGFR2 [1] (setting [3]) and in the assay with any gene target (setting [4]) was 50 nM throughout.
Take `COc1cc2c(Nc3ccc(Br)c(Cl)c3F)ncnc2cc1O[C@@H]1C[C@H]2OC[C@H](OC)[C@H]2O1` [compound 134155171]: the IC50 at VEGFR2 [1] (setting [3]) and in the assay with any gene target (setting [4]) was 50 nM in each case.
As to `Nc1c(C(=O)c2cc3cc(CN4CCOCC4)ccc3[nH]2)cnn1-c1cc(O)ccc1Cl` [compound 134156584, [5-Amino-1-(2-chloro-5-hydroxyphenyl)pyrazol-4-yl]-[5-(morpholin-4-ylmethyl)-1H-indol-2-yl]methanone], on VEGFR2 [2], the “VEGFR2, rIC50” value worked out at 5.6.
For the compound `COC(=O)c1ccc2c(C(=Nc3ccc(N(C)C(=O)Cn4ccnc4)cc3)c3ccccc3)c(O)[nH]c2c1` [compound 135399795], the results for the IC50 at VEGFR2 [1] and with any gene target (setting [5]) were 6 nM and 7 nM, respectively.
On to `CCN1CCC(Nc2ccc3[nH]c(O)c(C(=C4N=c5ccccc5=N4)c4ccccc4)c3c2)CC1` [compound 135405015, 3-[Benzimidazol-2-ylidene(phenyl)methyl]-5-[(1-ethylpiperidin-4-yl)amino]-1H-indol-2-ol], for which the “VEGFR2, rIC50” value on VEGFR2 [2] is 2.0.
Same read-out and setting: to `COC(=O)c1ccc2c(c1)NC(=O)/C2=C(\Nc1ccc(N(CCCN(C)C)C(C)=O)cc1)c1ccccc1` [compound 135405065] belongs 3.0; to `COC(=O)c1ccc2c(C(=Nc3ccc(C(=O)N(C)CCN(C)C)cc3)c3ccccc3)c(O)[nH]c2c1` [compound 135452890, Methyl 3-[N-[4-[2-(dimethylamino)ethyl-methylcarbamoyl]phenyl]-C-phenylcarbonimidoyl]-2-hydroxy-1H-indole-6-carboxylate], 2.2.
For the compound `CC(C)(Nc1nc(Nc2ccc3ncsc3c2)[nH]c(=O)n1)c1ccccc1` [compound 135454992], the IC50 on VEGFR2 [1] is 35 nM; in the assay with any gene target (setting [5]), 550 nM.
For the compound `COC(=O)c1ccc2c(c1)NC(=O)/C2=C(\Nc1ccc(N(CC(=O)N(C)C)C(C)=O)cc1)c1ccccc1` [compound 135456052, Methyl (3Z)-3-[[4-[acetyl-[2-(dimethylamino)-2-oxoethyl]amino]anilino]-phenylmethylidene]-2-oxo-1H-indole-6-carboxylate], the “VEGFR2, rIC50” value at VEGFR2 [2] is on record as 1.3.
Same read-out and setting: then `COC(=O)c1ccc2c(c1)NC(=O)/C2=C(\Nc1ccc(N(CCN(C)C)S(C)(=O)=O)cc1)c1ccccc1` [compound 135456078, Methyl (3Z)-3-[[4-[2-(dimethylamino)ethyl-methylsulfonylamino]anilino]-phenylmethylidene]-2-oxo-1H-indole-6-carboxylate], with 2.3.
Turning to `CCN1CCC(Nc2ccc3[nH]c(O)c(C(=C4N=c5ccccc5=N4)c4cccc(F)c4)c3c2)CC1` [compound 135488014, 3-[Benzimidazol-2-ylidene-(3-fluorophenyl)methyl]-5-[(1-ethylpiperidin-4-yl)amino]-1H-indol-2-ol], the “VEGFR2, rIC50” value on VEGFR2 [2] is on record as 0.6.
The same measure, in the same setting: to `CCN1CCC(Nc2ccc3[nH]c(O)c(C(=C4N=c5ccccc5=N4)c4ccc(C)cc4)c3c2)CC1` [compound 135507297, 3-[Benzimidazol-2-ylidene-(4-methylphenyl)methyl]-5-[(1-ethylpiperidin-4-yl)amino]-1H-indol-2-ol] belongs 1.6; to `COC(=O)c1ccc2c(c1)NC(=O)C2=C(Nc1ccc(CN(C)C)cc1)c1ccccc1` [compound 135522918, Methyl 3-[[4-[(dimethylamino)methyl]anilino]-phenylmethylidene]-2-oxo-1H-indole-6-carboxylate], 2.3.
Same read-out and setting: then `COC(=O)c1ccc2c(c1)NC(=O)/C2=C(\Nc1ccc(N(CCN(C)C)C(C)=O)cc1)c1ccccc1` [compound 135528963, Methyl (3Z)-3-[[4-[acetyl-[2-(dimethylamino)ethyl]amino]anilino]-phenylmethylidene]-2-oxo-1H-indole-6-carboxylate], with 2.4; and `CCN1CCC(Nc2ccc3[nH]c(O)c(C(=C4N=c5ccccc5=N4)c4cc(F)cc(F)c4)c3c2)CC1` [compound 135546228, 3-[Benzimidazol-2-ylidene-(3,5-difluorophenyl)methyl]-5-[(1-ethylpiperidin-4-yl)amino]-1H-indol-2-ol], with 0.7.
In the case of `Nc1ccc2c(c1)C(c1ccccc1Cl)=Nc1cn[nH]c1N2` [compound 136002661], the IC50 at VEGFR2 [1] is 34 nM; with any gene target (setting [5]), 88 nM.
With `CC(=O)Nc1ccc2c(c1)C(c1ccccc1Cl)=Nc1cn[nH]c1N2` [compound 136002662], the IC50 at VEGFR2 [1] is 33 nM; with any gene target (setting [5]) it was 38 nM.
For the compound `Cc1ccc(NC(=O)C2(C(=O)Nc3ccc(Nc4ncc(F)c(-c5cc(F)c6nc(C)n(C(C)C)c6c5)n4)cc3)CC2)cc1` [compound 155517777], the IC50 at VEGFR2 [1] (setting [3]) and with any gene target (setting [4]) was 46 nM throughout.
For `C[C@@H]1CN(C(=O)CCCC(=O)N2C[C@@H](C)c3c2cc(O)c2ccccc32)c2cc(O)c3ccccc3c21` [compound 155536201], the IC50 was 330 nM on VEGFR2 [1] and 540 nM in the assay on any gene target (setting [5]).
With `O=C(CSC(=S)N1CCCCC1)Nc1cccc(NC(=O)c2ccccn2)c1` [compound 155562216], the IC50 is 27 nM on VEGFR2 [1] and 84 nM in the assay with any gene target (setting [5]).
